Here are results for three compounds from US6022879A, “Bathocuproine treatment of neurologic disease” (priority 1998, dated 2000).

The target of experiment [1] is T1, human Cu,Zn superoxide dismutase (SOD), FALS mutant D90A (Homo sapiens, UniProt P00441, D91A).
T1 construct: made in house; host or cells: E. coli BL21(DE3) plysS, pET-3d
Description: Reduction of enzyme-bound copper of SOD by a reductant, monitored spectrally at 680 nm. The class given is biochemical. The note with it: Kpi pH 7.4, 37 degrees C. How it is done: (§1) SODs were present at a subunit concentration of 0.43 mM in 0.5 ml of 0.1 mM Kpi, pH 7.4 at 37 degrees C. Ascorbate (0.5 mM) was added at time zero and reduction was monitored spectrally at 680 nm for 1 hr.
(§2) SODs were present at a subunit concentration of 0.43 mM in 0.5 ml of 0.1 mM Kpi, pH 7.4 at 37 degrees C. H2 O2 (0.4 mM) was added at time zero and reduction was monitored spectrally at 680 nm for 5 minutes.
(§3) For more than two years the notion that FALS SODs could act as peroxidases and generate hydroxyl radical has been a subject of debate. However, H2 O2 can rapidly reduce Cu,Zn SOD and generate superoxide as a byproduct. (It is the addition of a second molecule of H2 O2 to give --OH that is extremely slow and of questionable significance). […] For example, it is possible to assess superoxide production from reduced SOD using the tetranitromethane (TNM) capture assay described by Hodgson and Fridovich (7).

Experiment [2] has as its target T2, human Cu,Zn superoxide dismutase (SOD), FALS mutant G93A (Homo sapiens, UniProt P00441, G94A).
T2 construct: made in house; host or cells: E. coli BL21(DE3) plysS, pET-3d
The description is as above. The class given is biochemical. The note with it: Kpi pH 7.4, 37 degrees C. How it is done:
as §1, §2, §3

Experiment [3] deals with T3, human Cu,Zn superoxide dismutase (SOD), wild type (Homo sapiens, UniProt P00441).
T3 construct: made in house; host or cells: E. coli
Described as above. The class given is biochemical. The note with it: Kpi pH 7.4, 37 degrees C. How it is done: as §1, §2, §3

Experiment [4] has as its target T4, human Cu,Zn superoxide dismutase (SOD), FALS mutant A4V (Homo sapiens, UniProt P00441, A5V).
T4 construct: made in house; host or cells: E. coli BL21(DE3) plysS, pET-3d
Described as above. The class given is biochemical. The following applies: Kpi pH 7.4, 37 degrees C. How it is done: as §1, §2, §3

Experiment [5] has as its target T5, human Cu,Zn superoxide dismutase (SOD), site-directed mutant D124N (Asp124 to Asn, model zinc-deficient SOD) (Homo sapiens, UniProt P00441, D125N).
T5 construct: made in house; host or cells: E. coli
Description: Reduction of enzyme-bound copper of SOD by a reductant, monitored spectrally at 680 nm (stopped-flow for ascorbate). The class given is biochemical. How it is done:
To circumvent this problem, a site-directed human SOD mutant was prepared wherein aspartate124 was changed to asparagine (D124N).
as §1, §2, §3

Experiment [6] concerns G93A transgenic mice (overexpress human G93A ALS SOD mutant). As to the kind of experiment: Bathocuproine in ALS SOD transgenic mice: onset and progression of paralysis. The following applies: intraperitoneal in soybean oil, daily 0.51 mg/100 g body weight, from 190 day old G93A mice. The class given is in vivo, mouse. How it is done:
Neither the overall efficiency nor the kinetics of Cu+1 removal was altered by sulfonic acid substituents on the ring(s) of the parent bathocuproine compound. Thus, the sulfonic acid groups serve mainly to increase water solubility and are not fundamental to copper binding activity. The unsubstituted parent compound, bathocuproine, is very lipid soluble and much more likely to cross the blood-brain barrier. In G93A transgenic mice, bathocuproine was dissolved in soybean oil and injected intraperitoneally at a daily dose of 0.51 mg/100 g body weight. Assuming uniform tissue distribution and fluid fraction equal to 0.7 of the mouse's body weight, this dose should give a cellular concentration of 20 µM or roughly a 4-fold molar excess over SOD protein concentration. […] After onset, paralysis progresses rapidly up the trunk and is ultimately fatal within about 14 days. Bathocuproine injections is initiated in 190 day old mice and the mice are observed for onset and progression of paralysis relative to untreated littermates. […] A group of non-transgenic mice are also injected to control for potential toxicities from bathocuproine itself.

Where [7] appears, read: 0.4 mM H2O2, SOD subunit 0.43 mM, 5 minutes.
[8] abbreviates: 0.5 mM ascorbate, SOD subunit 0.43 mM, 1 hr.

T5 sequence (P00441 whole entry D125N): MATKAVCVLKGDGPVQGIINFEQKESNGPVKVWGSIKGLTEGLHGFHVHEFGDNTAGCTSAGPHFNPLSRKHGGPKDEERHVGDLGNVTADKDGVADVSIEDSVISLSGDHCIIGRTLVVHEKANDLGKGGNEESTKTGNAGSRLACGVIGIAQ
T2 sequence (P00441 whole entry G94A): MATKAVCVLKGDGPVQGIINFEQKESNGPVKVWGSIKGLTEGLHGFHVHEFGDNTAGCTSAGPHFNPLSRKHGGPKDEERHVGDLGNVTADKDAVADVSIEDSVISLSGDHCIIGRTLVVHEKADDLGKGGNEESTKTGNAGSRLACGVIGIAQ
T3 sequence (P00441 whole entry): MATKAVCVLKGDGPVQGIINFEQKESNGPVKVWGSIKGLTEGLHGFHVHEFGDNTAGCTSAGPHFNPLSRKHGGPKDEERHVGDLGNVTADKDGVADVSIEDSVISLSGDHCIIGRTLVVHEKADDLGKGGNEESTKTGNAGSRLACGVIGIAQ
T1 sequence (P00441 whole entry D91A): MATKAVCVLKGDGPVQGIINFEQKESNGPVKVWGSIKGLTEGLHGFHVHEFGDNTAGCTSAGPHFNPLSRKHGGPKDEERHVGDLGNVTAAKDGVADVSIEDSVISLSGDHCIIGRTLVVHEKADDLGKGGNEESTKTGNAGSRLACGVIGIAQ
T4 sequence (P00441 whole entry A5V): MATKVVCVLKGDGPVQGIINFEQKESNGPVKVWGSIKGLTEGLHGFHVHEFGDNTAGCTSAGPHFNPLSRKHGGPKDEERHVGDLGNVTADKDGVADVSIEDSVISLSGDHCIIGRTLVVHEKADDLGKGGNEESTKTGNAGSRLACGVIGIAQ

With `OO` [H2 O2, hydrogen peroxide], the “t1/2 for reduction by H2 O2” value was 30.9 s in experiment [1] (setting [7]); 24.2 s in experiment [2] (setting [7]); 30.5 s in experiment [3] (setting [7]); 21.2 s in experiment [4] (setting [7]); 26.7 s in experiment [5] (0.4 mM H2O2, SOD subunit 0.43 mM, Kpi pH 7.4, 37 degrees C, 680 nm, 5 minutes).

In the case of `O=C1O[C@H]([C@@H](O)CO)C(O)=C1O` [ascorbate, ascorbic acid], the “t1/2 for reduction of ascorbate” value in experiment [1] (setting [8]) was determined as 1770 s; in experiment [2] (setting [8]) it was 1240 s. Also, the “t1/2 for reduction by ascorbate” value in experiment [3] (0.5 mM ascorbate, SOD subunit 0.43 mM) worked out at 1700 s. Also, the “t1/2 for reduction of SOD copper by ascorbate” value in experiment [4] (setting [8]) stood at 1550 s; in experiment [5] (0.5 mM ascorbate, SOD subunit 0.43 mM, Kpi pH 7.4, 37 degrees C, stopped-flow spectroscopy), 8.9 s. In experiment [5] (0.5 mM ascorbate, D124N versus wild-type), the “rate of ascorbate-mediated reduction relative to wild-type SOD” value is recorded as roughly 200 fold.

As to `Cc1cc(-c2ccccc2)c2ccc3c(-c4ccccc4)cc(C)nc3c2n1` [bathocuproine], in experiment [6], the “onset and progression of paralysis relative to untreated littermates” value was “delay of onset or slowing of progression is shown”.
